{"source": "patent US10722575B2", "about": "“Use of 1,3-diphenylprop-2-en-1-one derivatives for treating liver disorders” (GENFIT, priority 2009, dated 2020)", "assay_type_in_all_cases": "in vivo", "key": {"hApoE2 KI mice [1]": {"system": "hApoE2 KI mice", "test": "hApoE2 KI mice on Western diet, 2 weeks, histological scores of liver steatosis and intralobular inflammation", "conditions": "30 mg/kg/day", "procedure": "Animals were fed a Western diet (20% saturated fat and 0.2% cholesterol, Harlan Teklad TD88137) during 2 weeks in the first study, that involved the daily administration of Cpd 29 (at 30 mg/kg/day by oral gavage), and during 6 weeks in the second study, that involved the daily administration of Compound 1 of WO 2007147879 (Cpd1, at 30 mg/kg/day by oral gavage). Control animals were treated with vehicle only (Carboxymethlycellulose 1%+Tween-80 0.1%). Animals had access to food and water ad libitum.\n(§1) At the end of the studies, the animals were weighed and sacrificed under anesthesia. Blood was collected from the retro-orbital sinus; plasma was obtained by centrifugation (4 000 rpm, at 4° C. for 15 min) and subsequently frozen and stored at −20° C. Tissues and livers were isolated and snap-frozen in liquid nitrogen and stored at −80° C. for subsequent analysis (gene expression and biochemistry) or fixed in 4% paraformaldehyde for histology.\nFormalin-fixed liver tissue was processed, and 5-μm-thick paraffin sections were stained with Hematoxylin and Eosin. The histological analysis of stained liver sections was carried out in blind conditions to quantify liver steatosis and liver intralobular inflammation. Liver steatosis was scored from 0 to 3 as follows: 0 (very slightly affected), 1 (slightly affected), 2 (moderately affected), 3 (highly affected). Liver intralobular inflammation was also scored depending on the number of inflammatory foci counted by field of observation as follows: 0 (<1 focus/field), 1 (1 to 2 foci/field), 2 (2 to 4 foci/field) 3 (more than 4 foci/field).\nExemplary compounds of the General Formula (I) were tested in vivo in a high fat diet mice model. hApoE2 KI and hApoE2 KI/PPARalpha KO (“humanized” ApoE2 knock-in mice deficient for the mPPARalpha gene) were fed a Western diet and daily treated with the Cpd 29 at 30 mg/kg/day during 2 weeks. At the end of the protocol, liver steatosis and intra-lobular inflammation were evaluated in the control and treated mice by means of histological analysis and specific scores."}, "hApoE2 KI mice [2]": {"system": "hApoE2 KI mice", "test": "hApoE2 KI mice on Western diet, 12 weeks, hepatic gene expression by quantitative RT-PCR", "conditions": "12 weeks in Western diet, Cpd 29 0.3 mg/kg/day", "procedure": "The compounds of the General Formula (I) were tested in vivo in a high fat diet mice model. Dyslipidemic “humanized” ApoE2 knock-in mice (hApoE2 KI) were fed a Western diet and treated during 12 weeks. The compounds of interest, including the Compound 29 of WO 2004/005233 at 0.3 mg/kg/day and the Fenofibrate at 100 mg/kg/day (used as a reference compound) were incorporated into the diet. At the end of the protocol, animals were sacrificed, livers were harvested and the hepatic expression of genes that are known to be implicated in the liver inflammation and the fibrosis processes were evaluated by quantitative RT-PCR (Panels A-D). Statistical analysis was performed as indicated for FIG. 1.\nFemale hApoE2 knock-in (KI) transgenic mice (Sullivan et al., 1998)(4 weeks of age). Mice were kept on a 12-hour light/dark cycle at a constant temperature of 20±3° C. After a 1 week acclimation, mice were separated in groups of 7-10 animals selected such as the distribution of their body weight and plasmatic lipid levels determined before the experiment were uniform. Animals were fed a Western diet (20% saturated fat and 0.2% cholesterol, Harlan Teklad TD88137) at weaning and during 12 weeks. Compounds of interest (Cpd 29 at 0.3 mg/kg/day and Fenofibrate at 100 mg/kg/day) were incorporated in the Western diet (SAFE, Augy, France) and administrated to mice during 12 weeks. Control animals received Western diet only. Animals had access to food and water ad libitum.\nas §1\nTotal RNA was isolated from frozen livers using the NucleoSpin® 96 RNA kit (Macherey Nagel), according to the manufacturer's instructions. Reverse transcription was performed on 1 μg of total RNA by action of 1 μl of MMLV-RT enzyme (Invitrogen) during 1 hour at 37° C. in a total volume of 30 μl. […] Quantitative PCR was then carried out using the MyiQ Single-Color Real-Time PCR Detection System (Biorad). […]\nThe quantity of fluorescence emitted is directly proportional to the quantity of complementary DNA present at the start of the reaction and amplified during the PCR. The relative levels of expression were determined using the standard curve for each transcript. […] The induction factor, i.e. the ratio between the relative signal induced by the compound according to the invention and the average of the values relating to the control group, was then calculated for each sample. […]"}, "ob/ob mice": {"system": "ob/ob mice", "test": "ob/ob mice, plasma ALAT after 26 days of treatment", "conditions": "26 days daily gavage; Cpd 29 30 mg/kg/day, Rosiglitazone 10 mg/kg/day; FIG. 2C", "quoted_text": "The compounds of the General Formula (I) were tested in a murine model of type II diabetes, the ob/ob mice. […] After 26 days of treatment, animals were sacrificed and plasma samples and livers were harvested. Hepatic expression of genes that are known to be implicated in the liver inflammation process was evaluated and plasmatic levels of ALAT were measured (Panels A-C). Statistical analysis was performed using unpaired T-test with three p values that defines statistical relevance (* means p<0.05; ** means p<0.01; *** means p<0.001).\nMale ob/ob mice (8 weeks of age) were purchased from Charles River (L'Arbresle, France) and were kept on a 12-hour light/dark cycle at a constant temperature of 20±3° C. After a 1 week acclimation, mice were separated in groups of 8 animals selected such that the distribution of their body weight and their 6 hours fasting glycemia determined before the experiment were uniform. Animals were fed a standard chow diet (R03, SAFE) and treated during 26 days with the compounds of interest. […] Control animals were treated with vehicle only (Carboxymethlycellulose 1%+Tween-80 0.1%). Animals had access to food and water ad libitum.\nAt the end of the studies, the animals were weighed and sacrificed under anesthesia. […]"}}}
{"substance": "1-[4-methylthiophenyl]-3-[3,5-dimethyl-4-carboxydimethylmethyloxyphenyl]prop-2-en-1-one [Cpd 29]", "values": [{"measurement": "development of liver inflammation induced by the diet", "setting": "hApoE2 KI mice [1]; hApoE2 KI mice, Western diet", "result": "inhibits"}, {"measurement": "development of liver steatosis induced by the diet", "setting": "hApoE2 KI mice [1]; hApoE2 KI mice, Western diet", "result": "inhibits"}, {"measurement": "Liver Inflammation (score) 0", "setting": "hApoE2 KI mice [1]; share of group with score 0 (<1 focus/field), hApoE2 KI", "result": 100, "unit": "%"}, {"measurement": "Liver Steatosis (score) 0", "setting": "hApoE2 KI mice [1]; share of group with score 0 (very slightly affected), hApoE2 KI", "result": 83, "unit": "%"}, {"measurement": "Liver Inflammation (score) 1", "setting": "hApoE2 KI mice [1]; share of group with score 1 (1 to 2 foci/field), hApoE2 KI", "result": 0, "unit": "%"}, {"measurement": "Liver Steatosis (score) 1", "setting": "hApoE2 KI mice [1]; share of group with score 1 (slightly affected), hApoE2 KI", "result": 17, "unit": "%"}, {"measurement": "Liver Inflammation (score) 2", "setting": "hApoE2 KI mice [1]; share of group with score 2 (2 to 4 foci/field), hApoE2 KI", "result": 0, "unit": "%"}, {"measurement": "Liver Steatosis (score) 2", "setting": "hApoE2 KI mice [1]; share of group with score 2 (moderately affected), hApoE2 KI", "result": 0, "unit": "%"}, {"measurement": "Liver Steatosis (score) 3", "setting": "hApoE2 KI mice [1]; share of group with score 3 (highly affected), hApoE2 KI", "result": 0, "unit": "%"}, {"measurement": "Liver Inflammation (score) 3", "setting": "hApoE2 KI mice [1]; share of group with score 3 (more than 4 foci/field), hApoE2 KI", "result": 0, "unit": "%"}, {"measurement": "hepatic expression of Col1a1 (collagen genes)", "setting": "hApoE2 KI mice [2]; Fenofibrate 100 mg/kg/day, FIG. 3D", "result": "statistically significant inhibition"}, {"measurement": "hepatic expression of TNFα", "setting": "hApoE2 KI mice [2]; FIG. 3A", "result": "inhibited"}, {"measurement": "hepatic expression of CCL5", "setting": "hApoE2 KI mice [2]; FIG. 3B", "result": "inhibited"}, {"measurement": "hepatic expression of TGFβ", "setting": "hApoE2 KI mice [2]; FIG. 3C", "result": "inhibited"}, {"measurement": "plasmatic levels of ALAT", "setting": "ob/ob mice", "result": "statistically significant decrease"}]}
